In patent publication US12139520B2 (priority 2020, dated 2024):
Numbered stars: 1 amine (or outer) side, 2 acyl side, 3 side chain; on linkers, the order of the positions; unused ones are H or OH. Bridge positions count the residues as written; N and C are the ends. Square brackets hold non-standard residues; d marks the D form. Peptide text beside a SMILES is read from it. * marks the point of attachment. C20 diacid = O=C(O)CCCCCCCCCCCCCCCCCCC(=O)*; γGlu = O=C(O)[C@H](CCC(=O)[*:2])N[*:1]; Hyp = O=C(O)[C@@H]1C[C@@H](O)CN1

The molecules below were run against T1, hAMY3 receptor (Homo sapiens, UniProt O60896+P30988) (assay: cAMP assay for in vitro receptor activation, hAMY3-R). Details: cAMP assay, hAMY3 receptor; read-out: hAMY3R EC50.
T1 sequence (P30988 25-474): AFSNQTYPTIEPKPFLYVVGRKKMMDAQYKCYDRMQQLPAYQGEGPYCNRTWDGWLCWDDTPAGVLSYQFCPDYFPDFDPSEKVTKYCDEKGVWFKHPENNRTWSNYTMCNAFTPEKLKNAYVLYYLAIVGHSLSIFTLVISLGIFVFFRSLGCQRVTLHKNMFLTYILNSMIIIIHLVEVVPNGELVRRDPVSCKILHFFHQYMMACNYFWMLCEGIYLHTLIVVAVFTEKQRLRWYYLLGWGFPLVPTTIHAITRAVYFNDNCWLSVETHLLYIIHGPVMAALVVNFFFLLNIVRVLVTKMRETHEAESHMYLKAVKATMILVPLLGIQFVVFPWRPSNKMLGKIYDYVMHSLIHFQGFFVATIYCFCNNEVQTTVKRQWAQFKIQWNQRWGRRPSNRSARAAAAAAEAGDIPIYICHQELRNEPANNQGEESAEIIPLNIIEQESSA
T1 sequence (O60896 24-148 partner): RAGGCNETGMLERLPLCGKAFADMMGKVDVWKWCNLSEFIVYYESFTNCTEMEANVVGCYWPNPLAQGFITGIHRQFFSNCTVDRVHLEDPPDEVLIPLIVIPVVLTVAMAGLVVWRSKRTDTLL
Format: cell-based
Summary of the method: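 Thawed cells from a sub-cloned monoclonal hAMY3-overexpressing line are plated in DPBS containing 0.05% casein and 0.5 mM IBMX. Test compounds are added immediately at graded doses for 30 min at room temperature. Reagents for cAMP detection are then added, and TR-FRET is recorded after one hour.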

| SMILES | EC50 [nM] |
| --- | --- |
| CC[C@H](C)[C@H](NC(=O)[C@H](CCC(N)=O)NC(=O)[C@H](Cc1c[nH]cn1)NC(=O)[C@H](C)NC(=O)[C@H](CC(C)C)NC(=O)[C@H](CCCNC(=N)N)NC(=O)[C@H](CCC(=O)O)NC(=O)[C@@H](NC(=O)[C@@H](NC(=O)[C@@H]1CSSC[C@H](NC(=O)[C@H](CCCCN)NC(=O)CC[C@H](NC(=O)CCCCCCCCCCCCCCCCCCC(=O)O)C(=O)O)C(=O)N[C@@H](CC(N)=O)C(=O)N[C@@H]([C@@H](C)O)C(=O)N[C@@H](C)C(=O)N[C@@H]([C@@H](C)O)C(=O)N1)[C@@H](C)O)C(C)C)C(=O)N[C@@H](Cc1ccc(O)cc1)C(=O)N[C@@H](CCC(N)=O)C(=O)N[C@@H](Cc1ccccc1)C(=O)N[C@H](C(=O)N[C@@H](CC(=O)O)C(=O)N[C@@H](CCCCN)C(=O)N[C@@H](CC(=O)O)C(=O)N[C@@H](CCCCN)C(=O)N[C@@H](CC(=O)O)C(=O)N[C@@H](CC(N)=O)C(=O)N[C@H](C(=O)N[C@@H](C)C(=O)N1CCC[C@H]1C(=O)N1CCC[C@H]1C(=O)N[C@H](C(=O)N[C@@H](CC(N)=O)C(=O)N[C@H](C(=O)NCC(=O)N[C@@H](CO)C(=O)N[C@@H](CC(N)=O)C(=O)NCC(=O)N1C[C@H](O)C[C@H]1C(N)=O)C(C)C)[C@@H](C)O)C(C)C)[C@@H](C)O [compound 55] ({C20 diacid-γGlu}-KCNTATCTVERLAHQIYQFTDKDKDNVAPPTNVGSNG[Hyp]-NH2; disulfide 2-7) | 0.012 |
| CC[C@H](C)[C@H](NC(=O)[C@H](CCC(N)=O)NC(=O)[C@H](Cc1c[nH]cn1)NC(=O)[C@H](C)NC(=O)[C@H](CC(C)C)NC(=O)[C@H](CCCNC(=N)N)NC(=O)[C@H](CCC(N)=O)NC(=O)[C@@H](NC(=O)[C@@H](NC(=O)[C@@H]1CSSC[C@H](NC(=O)[C@H](CCCCN)NC(=O)CC[C@H](NC(=O)CCCCCCCCCCCCCCCCCCC(=O)O)C(=O)O)C(=O)N[C@@H](CC(N)=O)C(=O)N[C@@H]([C@@H](C)O)C(=O)N[C@@H](C)C(=O)N[C@@H]([C@@H](C)O)C(=O)N1)[C@@H](C)O)C(C)C)C(=O)N[C@@H](C)C(=O)N[C@@H](CCC(N)=O)C(=O)N[C@@H](Cc1ccccc1)C(=O)N[C@H](C(=O)N[C@@H](CC(=O)O)C(=O)N[C@@H](CCCCN)C(=O)N[C@@H](CC(=O)O)C(=O)N[C@@H](CCCCN)C(=O)N[C@@H](CC(=O)O)C(=O)N1CCC[C@H]1C(=O)N[C@H](C(=O)N[C@@H](C)C(=O)N1CCC[C@H]1C(=O)N1CCC[C@H]1C(=O)N[C@H](C(=O)N[C@@H](CC(N)=O)C(=O)N[C@H](C(=O)NCC(=O)N[C@@H](CO)C(=O)N[C@@H](CC(N)=O)C(=O)NCC(=O)N1C[C@H](O)C[C@H]1C(N)=O)C(C)C)[C@@H](C)O)C(C)C)[C@@H](C)O [compound 92] ({C20 diacid-γGlu}-KCNTATCTVQRLAHQIAQFTDKDKDPVAPPTNVGSNG[Hyp]-NH2; disulfide 2-7) | 0.016 |

Second part, the molecule after the results:

| EC50 [nM] | SMILES |
| --- | --- |
| 0.01 | CC[C@H](C)[C@H](NC(=O)[C@H](CCCCN)NC(=O)[C@H](CO)NC(=O)[C@H](CCCNC(=N)N)NC(=O)[C@@H]1CCCN1C(=O)[C@H](C)NC(=O)[C@@H](NC(=O)[C@H](CC(N)=O)NC(=O)[C@H](CC(=O)O)NC(=O)[C@H](CCCCN)NC(=O)[C@H](CC(=O)O)NC(=O)[C@H](CCCCN)NC(=O)[C@H](CC(=O)O)NC(=O)[C@@H](NC(=O)[C@H](Cc1ccccc1)NC(=O)[C@H](CCC(N)=O)NC(=O)[C@@H](NC(=O)[C@H](CC(C)C)NC(=O)[C@H](Cc1ccccc1)NC(=O)[C@H](CC(N)=O)NC(=O)[C@H](C)NC(=O)[C@H](CC(C)C)NC(=O)[C@H](CCCNC(=N)N)NC(=O)[C@H](CCC(N)=O)NC(=O)[C@@H](NC(=O)[C@H](C)NC(=O)[C@@H]1CSSC[C@H](NC(=O)[C@@H](N)CCCCN)C(=O)N[C@@H](CC(N)=O)C(=O)N[C@@H](Cc2ccccc2)C(=O)N[C@@H](C)C(=O)N[C@@H]([C@@H](C)O)C(=O)N1)[C@@H](C)O)C(C)C)[C@@H](C)O)C(C)C)C(=O)NCC(=O)N1CCC[C@H]1C(=O)N[C@@H](CCC(N)=O)C(=O)NCC(=O)N[C@@H](Cc1ccc(O)cc1)C(N)=O [compound 363] (H-KCNFATCATQRLANFLVQFTDKDKDNVAPRSKIGPQGY-NH2; disulfide 2-7; N-terminus assumed) |
| 0.012 | CC[C@H](C)[C@H](NC(=O)[C@H](CCC(N)=O)NC(=O)[C@H](Cc1c[nH]cn1)NC(=O)[C@H](C)NC(=O)[C@H](CC(C)C)NC(=O)[C@H](CCCNC(=N)N)NC(=O)[C@H](CCC(N)=O)NC(=O)[C@@H](NC(=O)[C@@H](NC(=O)[C@@H]1CSSC[C@H](NC(=O)[C@H](CCCCN)NC(=O)CC[C@H](NC(=O)CCCCCCCCCCCCCCCCCCC(=O)O)C(=O)O)C(=O)N[C@@H](CC(N)=O)C(=O)N[C@@H]([C@@H](C)O)C(=O)N[C@@H](C)C(=O)N[C@@H]([C@@H](C)O)C(=O)N1)[C@@H](C)O)C(C)C)C(=O)N[C@@H](Cc1ccc(O)cc1)C(=O)N[C@@H](CCC(N)=O)C(=O)N[C@@H](Cc1ccccc1)C(=O)N[C@@H](CO)C(=O)N[C@@H](CC(=O)O)C(=O)N[C@@H](CCCCN)C(=O)N[C@@H](CC(=O)O)C(=O)N[C@@H](CCCCN)C(=O)N[C@@H](CC(=O)O)C(=O)N[C@@H](CC(N)=O)C(=O)N[C@H](C(=O)N[C@@H](C)C(=O)N1CCC[C@H]1C(=O)N1CCC[C@H]1C(=O)N[C@H](C(=O)N[C@@H](CC(N)=O)C(=O)N[C@H](C(=O)NCC(=O)N[C@@H](CO)C(=O)N[C@@H](CC(N)=O)C(=O)NCC(=O)N1C[C@H](O)C[C@H]1C(N)=O)C(C)C)[C@@H](C)O)C(C)C [compound 57] ({C20 diacid-γGlu}-KCNTATCTVQRLAHQIYQFSDKDKDNVAPPTNVGSNG[Hyp]-NH2; disulfide 2-7) |
| 0.016 | CC[C@H](C)[C@H](NC(=O)[C@H](CCC(N)=O)NC(=O)[C@H](Cc1c[nH]cn1)NC(=O)[C@H](C)NC(=O)[C@H](CC(C)C)NC(=O)[C@H](CCCNC(=N)N)NC(=O)[C@H](CCC(N)=O)NC(=O)[C@@H](NC(=O)[C@@H](NC(=O)[C@@H]1CSSC[C@H](NC(=O)[C@H](CCCCN)NC(=O)CC[C@H](NC(=O)CCCCCCCCCCCCCCCCCCC(=O)O)C(=O)O)C(=O)N[C@@H](CC(N)=O)C(=O)N[C@@H]([C@@H](C)O)C(=O)N[C@@H](C)C(=O)N[C@@H]([C@@H](C)O)C(=O)N1)[C@@H](C)O)C(C)C)C(=O)N[C@@H](Cc1ccc(O)cc1)C(=O)N[C@@H](CCC(N)=O)C(=O)N[C@@H](Cc1ccccc1)C(=O)N[C@H](C(=O)N[C@@H](CC(=O)O)C(=O)N[C@@H](CCCCN)C(=O)N[C@@H](CC(N)=O)C(=O)N[C@@H](CCCCN)C(=O)N[C@@H](CC(=O)O)C(=O)N[C@@H](CC(N)=O)C(=O)N[C@H](C(=O)N[C@@H](C)C(=O)N1CCC[C@H]1C(=O)N1CCC[C@H]1C(=O)N[C@H](C(=O)N[C@@H](CC(N)=O)C(=O)N[C@H](C(=O)NCC(=O)N[C@@H](CO)C(=O)N[C@@H](CC(N)=O)C(=O)NCC(=O)N1C[C@H](O)C[C@H]1C(N)=O)C(C)C)[C@@H](C)O)C(C)C)[C@@H](C)O [compound 91] ({C20 diacid-γGlu}-KCNTATCTVQRLAHQIYQFTDKNKDNVAPPTNVGSNG[Hyp]-NH2; disulfide 2-7) |
